Experimental data taken from EP4813403A1, “USE OF GLP-1R/GIPR DOUBLE-TARGET AGONIST IN PREPARING ANIMAL DRUG” (Hangzhou Zhongmeihuadong Pharmaceutical Co., Ltd., priority 2023, dated 2025).

Assays:
[1] = Pharmacokinetics in C57 mice; conditions: C57, mouse, in vivo
Protocol: After subcutaneous or intravenous administration to C57 mice, plasma was collected and the drug concentration in plasma was determined to illustrate the in vivo pharmacokinetic properties of the compound according to the present invention. […] 20.0 µL of thawed plasma sample was taken. 20 µL of 50% aqueous methanol solution (containing 100 ng mL^-1 Tolbutamide) and 60 µL of acetonitrile were added sequentially to precipitate protein. The mixture was vortexed for 5 minutes, and centrifuged at 4815 rpm for 8 minutes. 50.0 µL of the supernatant was taken, into which 50.0 µL of 0.5% aqueous formic acid solution was added. The mixture was vortexed for 5 minutes. 50 µL of the mixture solution was sampled and injected into the LC-MS/MS to determine the drug concentration in plasma. Based on the drug concentration in plasma of the compounds in C57 mice, the pharmacokinetic parameters were calculated by applying the software Winnolin 8.3 in a non-compartmental model, and the results were shown in Table 7 and Table 8 below. Table 7 Average Pharmacokinetic Parameters after Single Subcutaneous Administration to Mice

[2] = Pharmacokinetics in cynomolgus monkeys; conditions: cynomolgus monkey, in vivo, sc
Protocol: After subcutaneous or intravenous administration to cynomolgus monkeys, plasma was collected and the drug concentration in plasma was determined to illustrate the in vivo pharmacokinetic properties of the compound according to the present invention. […] 70.0 µL of thawed plasma sample was taken. 70 µL of acetonitrile (containing 1 ng/ml of the internal standard) was added to precipitate protein. […] The mixture was vortexed for 5 minutes. 10 µL of the mixture solution was sampled and injected into the LC-MS/MS to determine the drug concentration in plasma. […] Table 9 Average Pharmacokinetic Parameters after Single Subcutaneous Administration to Cynomolgus Monkeys

db/db mice = assay: Multiple administration experiment on db/db mice; type: in vivo; conditions: db/db mice, s.c. every 3 days for 4 weeks, Mean±SEM, 6 mice
Protocol: "Minimum effective dose" as disclosed in the present invention refers to the minimum administration dose at which the drug effect is produced.
"Efficacy dose" as disclosed in the present invention refers to the administration dose at which the drug effect is produced.
In this study, 7-8 week old male db/db mice were used. The db/db mice were placed in an individual ventilated cage (IVC) facility with a controlled temperature (20-26°C) and humidity (40-70%) and a controlled 12:12 h light-dark cycle. The mice received food and water ad libitum. Blood were sampled at the tail tip, and the base blood glucose was measured by a Roche blood glucose meter. The mice were randomly divided into groups according to the initial blood glucose and initial body weight (n=6/group), and each group had similar body weight and blood glucose.
The mice were subcutaneously administrated every 3 days for 4 weeks. Subcutaneous administration was conducted on days 1, 4, 7, 10, 13, 16, 19, 22 and 25. Random blood glucose was recorded every 3 days throughout the study. On day 28, the fasting blood glucose was measured. Then the blood was collected by orbital blood sampling. After the orbital blood sampling, the animals were sacrificed, and the liver was taken and weighed. After 1 to 2 hours, the collected blood was centrifuged at 3000 rpm for 10 min to separate the serum. Biochemical indicators such as triglyceride (TG), alanine aminotransferase (ALT), and total bilirubin (TBIL) were determined with a biochemical analyzer. The data results were statistically analyzed using GraphPad Prism8, and the statistical differences among the groups were analyzed following T-Test. Significant differences were identified at p<0.05.

human GLP-1R = human GLP-1R (Homo sapiens, UniProt P43220); assay: In vitro binding activity to human GLP-1 receptor ([125I]GLP-1 displacement, crude cell membranes); parameters: expressed in transfected cells; conditions: ratio of the Ki value of the endogenous ligand to the Ki value of the test compound; larger ratio = stronger binding
Protocol: 89 µL of membrane dissolved in binding buffer (50 mM Hepes, pH 7.4, 5 mM MgCl2 , 5 mM EDTA, 0.005% TWEEN, 0.005% HSA) was transferred to a 96-well test plate (5 µg/well). The compound was serially diluted in DMSO, and then, 1 µL of the diluted compound or 100% DMSO was added to the test plate containing the membrane solution. 10 µL of [^125I] […] The test plate was left at room temperature for 90 minutes. The membrane complexes were harvested into a GF/B plate pre-coated with 0.5% PEI by using a Cell Harvester, and washed for 3 times with 500 µL of pre-cooled elution buffer (50 mM Hepes, pH 7.4, 500 mM NaCl) at 4°C. After drying at 37°C for 2 hours, 50 µL of scintillation fluid was added to each well. The plate was read with a MicroBeta2 scintillation counter after sealing and settling for at least 1 hour so as to determine the membrane bound radioligand level.
The IC50 concentration was converted to Ki (Ki was the inhibition constant) using the Cheng-Prusoff equation.

Chain of human GLP-1R (P43220 24-463): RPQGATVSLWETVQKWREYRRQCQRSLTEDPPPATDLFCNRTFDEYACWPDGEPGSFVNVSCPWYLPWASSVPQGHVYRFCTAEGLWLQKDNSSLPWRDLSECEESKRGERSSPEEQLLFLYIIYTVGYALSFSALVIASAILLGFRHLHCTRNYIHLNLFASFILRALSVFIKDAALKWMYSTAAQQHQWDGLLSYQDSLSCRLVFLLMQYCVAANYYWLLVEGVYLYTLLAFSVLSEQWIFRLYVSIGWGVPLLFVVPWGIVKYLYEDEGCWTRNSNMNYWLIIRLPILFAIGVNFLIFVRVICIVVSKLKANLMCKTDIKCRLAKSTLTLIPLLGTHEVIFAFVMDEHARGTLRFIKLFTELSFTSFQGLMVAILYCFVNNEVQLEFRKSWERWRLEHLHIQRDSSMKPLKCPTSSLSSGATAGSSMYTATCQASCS

Row | Structure (SMILES) | Tmax [2] | half-life [2] | AUC 4-25 day Glu (db/db mice; 3 nmol/kg) | D28 FBG(Fasting Blood Glucose) (db/db mice; 3 nmol/kg) | Liver Weight (db/db mice; 3 nmol/kg) | Serum ALT (db/db mice; 3 nmol/kg) | Serum TBIL (db/db mice; 3 nmol/kg) | Serum TG (db/db mice; 3 nmol/kg) | AUC 4-25 day Glu (db/db mice; 10 nmol/kg) | D28 FBG(Fasting Blood Glucose) (db/db mice; 10 nmol/kg) | Liver Weight (db/db mice; 10 nmol/kg) | Serum ALT (db/db mice; 10 nmol/kg) | Serum TBIL (db/db mice; 10 nmol/kg) | Serum TG (db/db mice; 10 nmol/kg) | AUC 4-25 day Glu (db/db mice; 30 nmol/kg) | D28 FBG(Fasting Blood Glucose) (db/db mice; 30 nmol/kg) | Liver Weight (db/db mice; 30 nmol/kg) | Serum ALT (db/db mice; 30 nmol/kg) | Serum TBIL (db/db mice; 30 nmol/kg) | Serum TG (db/db mice; 30 nmol/kg) | other results
1 | CC[C@H](C)[C@H](NC(=O)C(C)(C)NC(=O)[C@H](Cc1ccc(O)cc1)NC(=O)[C@H](CC(=O)O)NC(=O)[C@H](CO)NC(=O)[C@@H](NC(=O)C(C)(Cc1ccccc1)NC(=O)[C@@H](NC(=O)CNC(=O)[C@H](CCC(=O)O)NC(=O)C(C)(C)NC(=O)[C@@H](N)Cc1ccc(O)cc1)[C@@H](C)O)[C@@H](C)O)C(=O)NC(C)(C)C(=O)N[C@@H](CC(C)C)C(=O)N[C@@H](CC(=O)O)C(=O)N[C@@H](CCCCN)C(=O)N[C@@H](CCC(N)=O)C(=O)N[C@@H](C)C(=O)N[C@@H](CCC(N)=O)C(=O)N[C@@H](C)C(=O)N[C@@H](CCC(=O)O)C(=O)N[C@@H](Cc1ccccc1)C(=O)N[C@H](C(=O)N[C@@H](CCCCN)C(=O)N[C@@H](Cc1c[nH]c2ccccc12)C(=O)N[C@@H](CC(C)C)C(=O)N[C@@H](CC(C)C)C(=O)N[C@@H](CCCCNC(=O)COCCOCCNC(=O)COCCOCCNC(=O)COCCOCCNC(=O)CC[C@H](NC(=O)CCCCCCCCCCCCCCCCCCCCC(=O)O)C(=O)O)C(=O)NCC(=O)NCC(=O)N1CCC[C@H]1C(=O)N[C@@H](CO)C(=O)N[C@@H](CO)C(=O)NCC(=O)N[C@@H](C)C(=O)N1CCC[C@H]1C(=O)N1CCC[C@H]1C(=O)N1CCC[C@H]1C(=O)N[C@@H](CO)C(=O)N[C@@H](CCCCN)C(N)=O)C(C)C (stereo partly shown) [Compound P020] | 22.7 ± 10.1 h | 2.81 ± 0.395 days | 268.28 ± 24.64 mmol·days/L | 9.6 ± 1.32 mmol/L | 2.03 ± 0.09 g | 214.56±43.83 U/L | 1.54 ± 0.25 µmol/L | 1.37 ± 0.12 mmol/L | 290.78 ± 27.25 mmol·days/L | 10.7 ± 1.62 mmol/L | 2.09 ± 0.1 g | 113.48±24.18 U/L | 0.91 ± 0.05 µmol/L | 1.07 ± 0.03 mmol/L | 184.18 ± 22.44 mmol·days/L | 8.22 ± 1.07 mmol/L | 1.83 ± 0.16 g | 112.47±16.69 U/L | 0.95 ± 0.28 µmol/L | 1.2 ± 0.07 mmol/L | AUC(0-inf) ([1]; iv): 17400 ng·h/mL; AUC(0-t) ([1]; iv): 16300 ng·h/mL; C0 ([1]; iv): 1820 ng/mL; half-life ([1]; iv): 1000 min; MRT ([1]; iv, MRT(0-t)): 16.8 h; MRT ([1]; iv, MRT(0-∞)): 21.8 h; AUC(0-inf) ([1]; sc): 21100 ng·h/mL; AUC(0-t) ([1]; sc): 19000 ng·h/mL; Cmax ([1]; sc): 836 ng/mL; Tmax ([1]; sc): 4.25 h; half-life ([1]; sc): 1190 min; MRT ([1]; sc, MRT(0-t)): 21.8 h; MRT ([1]; sc, MRT(0-∞)): 29.4 h; GLP-1R Ki ratio (human GLP-1R): 1.36
2 | CC[C@H](C)[C@H](NC(=O)C(C)(C)NC(=O)[C@H](Cc1ccc(O)cc1)NC(=O)[C@H](CC(=O)O)NC(=O)[C@H](CO)NC(=O)[C@@H](NC(=O)C(C)(Cc1ccccc1)NC(=O)[C@@H](NC(=O)CNC(=O)[C@H](CCC(=O)O)NC(=O)C(C)(C)NC(=O)[C@@H](N)Cc1ccc(O)cc1)[C@@H](C)O)[C@@H](C)O)C(=O)NC(C)(C)C(=O)N[C@@H](CC(C)C)C(=O)N[C@@H](CC(=O)O)C(=O)N[C@@H](CCCCN)C(=O)N[C@@H](CCC(N)=O)C(=O)N[C@@H](C)C(=O)N[C@@H](CCC(N)=O)C(=O)N[C@@H](C)C(=O)N[C@@H](CCC(=O)O)C(=O)N[C@@H](Cc1ccccc1)C(=O)N[C@H](C(=O)N[C@@H](CCCCN)C(=O)N[C@@H](Cc1c[nH]c2ccccc12)C(=O)N[C@@H](CC(C)C)C(=O)N[C@@H](CC(C)C)C(=O)N[C@@H](CCCCNC(=O)COCCOCCNC(=O)COCCOCCNC(=O)CC[C@H](NC(=O)CCCCCCCCCCCCCCCCCCCCC(=O)O)C(=O)O)C(=O)NCC(=O)NCC(=O)N1CCC[C@H]1C(=O)N[C@@H](CO)C(=O)N[C@@H](CO)C(=O)NCC(=O)N[C@@H](C)C(=O)N1CCC[C@H]1C(=O)N1CCC[C@H]1C(=O)N1CCC[C@H]1C(=O)N[C@@H](CO)C(=O)N[C@@H](CCCCN)C(N)=O)C(C)C (stereo partly shown) [Compound P017] | 48 ± 24 h | 1.85 ± 0.2 days | 303.78 ± 33.24 mmol·days/L | 11.68 ± 1.7 mmol/L | 2.14 ± 0.08 g | 105.16±7.1 U/L | 0.88 ± 0.26 µmol/L | 1.58 ± 0.17 mmol/L | 249.65 ± 47.65 mmol·days/L | 11.95 ± 2.51 mmol/L | 2.11 ± 0.09 g | 141.65±12.72 U/L | 1.59 ± 0.07 µmol/L | 1.19 ± 0.05 mmol/L | 294.96 ± 11.96 mmol·days/L | 10.08 ± 0.79 mmol/L | 2.35 ± 0.09 g | 176.48±51.6 U/L | 1.11 ± 0.1 µmol/L | 1.09 ± 0.06 mmol/L | GLP-1R Ki ratio (human GLP-1R): 0.56
